According to patent publication EP4050002A1, “ANTI-PROLIFERATIVE AGENTS” (First Health Pharmaceuticals B.V., priority 2021, dated 2022):
Like-named read-outs stand apart in the source and are kept apart here.

Assay: Pharmacokinetic studies, single administration
Type: in vivo, male Swiss albino mice
Settings: for MRT last: read-out: MRT0-last
Procedure: The pharmacokinetic study was performed in male Swiss albino mice from Hylasco Biotechnology Pvt. Ltd. (A Charles River technology Licensee). The tissue distribution study was performed in male Swiss albino mice and in male FOXN1^nu/nu nude mice (Envigo spa). The efficacy study was performed in male FOXN1^nu/nu nude mice.
Single intravenous administration studies were done as follows: • 1. Compound 5 • dose: 1 mg/kg • dose concentration: 0.2 mg/ml in 10% DMSO and 10% Solutol in WFI (90%). • volume: 5 ml/kg • blood withdrawal time points: 0.083, 0.25, 0.5, 1, 2, 4, 8, 24 hours post administration • 2. Compound 3 • […] • dose concentration: 0.2 mg/ml in 10% DMSO and 10% Solutol in WFI (90%). • volume: 5 ml/kg • blood withdrawal time points: 0.083, 0.25, 0.5, 1, 2, 4, 8, 24 hours post administration
Single intraperitoneal administration studies were done as follows: • 1. Compound 5 • dose 1: 45 mg/kg • dose concentration: […] in 10% DMSO, 5% TWEEN 80 and WFI (85%) • volume: 5 ml/kg • blood withdrawal time points: 0.25, 0.5, 1, 2, 4, 6, 8, 24 hours post administration • brain, liver and lungs collected at 4, 8 and 24 hours • 2. Compound 5 • dose 2: 10 mg/kg • dose concentration: 2 mg/ml in 10% DMSO, 10% Solutol and WFI (90%). • volume: 5 ml/kg • blood withdrawal time points: 0.25, 0.5, 1, 2, 4, 6, 8, 24 hours post administration
Single oral administration studies were done as follows: • 1. Compound 5 • dose: 45 mg/kg • dose concentration: 4.5 mg/ml in Labrasol (30%), Capmul PG 8 (30%), Cremophor EL (10%) and PEG (30%) • volume given by oral gavage: 10 ml/Kg • blood withdrawal time points: 0.08, 0.25, 0.5, 1, 2, 4, 6, 8, 24 hours post administration
Single intra tracheal administration studies were done as follows: • 1. Compound 5 • dose: 0.08 mg/kg • dose concentration: 0.04 mg/ml in DMSO (1%) and WFI (99%) • volume given by intra tracheal route: 2 ml/Kg • blood withdrawal time points: 0.03, 0.08, 0.17, 0.25, 0.75, 1.5, 2, 4 hours post administration
Animals were observed up to 24 hours after dose administration for behavioral or physical alterations. For blood withdrawal, mice were anesthetized using gaseous anesthesia and 0.2 to 0.3 ml of blood samples were collected in Li-Heparin containing tubes at the time points above indicated, stored on ice, centrifuged within 15 minutes to separate plasma at 1540 ref (5000 rpm) at 4°C for 10 minutes; plasma was separated and transferred to new tubes.
Selected organs were collected at 4, 8 and 24 hours for drug distribution studies: mice were anesthetized and intra-cardiac whole body perfusion was performed using chilled saline. Separated tissues were immediately washed, dried, weighed and frozen at -80±10°C until homogenization. The levels of compound in the tissues and in plasma were quantified by LC-MS/MS, using as instrument Q-TRAP 500, with a column Phenomenex, KINETEX 5µ EVO C18 50 mm X 4.5 mm (Phenomenex). The mobile phase employed was composed as follows: aqueous reservoir, 10 mM Ammonium Acetate with 0.1% Formic acid in MilliQ water; organic reservoir, Acetonitrile:Methanol (50:50, v/v); flow rate 1 ml/min; injection volume 10µl; rinsing solution, Acetonitrile:Methanol:Water (20:60:20, v/v).
Calibration Curve & Quality Control samples preparation: 0.5 µl of calibration curve standards were diluted 25X with blank matrix (i.e. Acetonitrile:Methanol (1:1, v/v)) and precipitated with 200 µl of acetonitrile containing internal standard at 200 ng/ml concentration, then vortexed for 5 min at 850 rpm, centrifuged at 4000 rpm for 5 min at 4°C, from this 110 µl of supernatant was separated and diluted with 130 µl of methanol:water, (1:1 v/v) .
Telmisartan (200 ng/ml) was used as internal standard. Telmisartan was spiked in 100% acetonitrile to a final concentration of 200 ng/ml. […]

[1] = I.P. 1, 45 mg/kg, TWEEN-based vehicle
[2] = I.P. 2, 10 mg/kg, Solutol-based vehicle
[3] = mouse, in vivo, iv, I.V., 1 mg/kg
[4] = mouse, plasma, ip, I.P. 1, 45 mg/kg, TWEEN-based vehicle
[5] = mouse, plasma, ip, I.P. 2, 10 mg/kg, Solutol-based vehicle
[6] = mouse, plasma, iv, I.V., 1 mg/kg
[7] = mouse, plasma, po, P.O., 45 mg/kg
[8] = mouse, plasma, I.T., 0.08 mg/kg

**Q.** What does the source list for CCCCc1cn(-c2ccc(-c3nnc(-c4ccccc4C(F)(F)F)o3)cc2)nn1 [Compound 5]?
**A.** AUCExtra [1]: 14.86%; F [1]: 136%; AUCExtra [2]: 5.02%; F [2]: 135%; AUCExtra (I.T., 0.08 mg/kg): 2.92%; AUCExtra (I.V., 1 mg/kg): 3.98%; AUCExtra (P.O., 45 mg/kg): 16.91%; F (P.O., 45 mg/kg): 95%; bioavailability (mouse, in vivo, ip, intraperitoneal route, read-out: absolute bioavailability (F)): > 100%; Vd [3]: 8.2 L/kg; clearance [3]: 40 mL/min/kg; AUC(0-inf) [4]: 25600 ng·h/mL; AUC(0-t) [4]: 21800 ng·h/mL; Cmax [4]: 3700 ng/mL; Tmax [4]: 2 h; MRT last [4]: 7.46 h; AUC(0-inf) [5]: 5630 ng·h/mL; AUC(0-t) [5]: 5350 ng·h/mL; Cmax [5]: 692 ng/mL; Tmax [5]: 2 h; MRT last [5]: 6.49 h; AUC(0-inf) [6]: 417 ng·h/mL; AUC(0-t) [6]: 400 ng·h/mL; C0 [6]: 879 ng/mL; half-life [6]: 2.37 h; MRT last [6]: 1.09 h; AUC(0-inf) [7]: 17800 ng·h/mL; AUC(0-t) [7]: 14800 ng·h/mL; Cmax [7]: 1350 ng/mL; Tmax [7]: 4 h; MRT last [7]: 9.05 h; AUC(0-inf) [8]: 815 ng·h/mL; AUC(0-t) [8]: 791 ng·h/mL; Cmax [8]: 1950 ng/mL; Tmax [8]: 0.03 h; MRT last [8]: 0.72 h
